#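 Assay format: 96-well plates, 48-hour exposure. The concentration for 50% growth inhibition is given as GI50.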 The source made the active and inactive calls. No stated cut-off is given here; in the data, active = GI50 up to about 1.1 µM and inactive = higher.
# How the values were obtained:
# Assay in all cases: NCI-60 cell line screen, 48 h
# [1] = system: KM12
# [2] = system: LOX IMVI
# [3] = system: UO-31
# [4] = system: HL-60
# [5] = system: NCI-H226
# [6] = system: HCT-116
# [7] = system: COLO 205
# [8] = system: MOLT-4
# [9] = system: NCI-H522
# [10] = system: SK-MEL-28
# [11] = system: U-251
# [12] = system: NCI-H460
# [13] = system: SK-OV-3
# [14] = system: DMS-114
# [15] = system: SNB-19
# [16] = system: CCRF-CEM
# [17] = system: BT-549
# [18] = system: DU-145
# [19] = system: MCF7
# [20] = system: T47D
Structure (SMILES),GI50 [1],GI50 [2],GI50 [3],GI50 [4],GI50 [5],GI50 [6],GI50 [7],GI50 [8],GI50 [9],GI50 [10],GI50 [11],GI50 [12],GI50 [13],GI50 [14],GI50 [15],GI50 [16],GI50 [17],GI50 [18],GI50 [19],GI50 [20]
Cc1ccc(S(=O)OC23CC4CC(CC(C4)C2)C3)cc1 (centres undefined),> 100 µM (inactive),39.2 µM (inactive),41.2 µM (inactive),19.4 µM (inactive),> 100 µM (inactive),> 100 µM (inactive),> 100 µM (inactive),29.9 µM (inactive),30.5 µM (inactive),> 100 µM (inactive),36.8 µM (inactive),> 100 µM (inactive),> 100 µM (inactive),78.5 µM (inactive),> 100 µM (inactive),–,–,–,–,–
CC(CC[C@@H](C)C1CCC2[C@@H]3CC(O)C4CC(O)[C@@H](O)C[C@]4(C)C3CC[C@@]21C)C(C)(C)C (some centres undefined),> 100 µM (inactive),> 100 µM (inactive),> 100 µM (inactive),> 100 µM (inactive),> 100 µM (inactive),> 100 µM (inactive),> 100 µM (inactive),> 100 µM (inactive),–,> 100 µM (inactive),> 100 µM (inactive),> 100 µM (inactive),> 100 µM (inactive),> 100 µM (inactive),> 100 µM (inactive),> 100 µM (inactive),–,–,–,–
COc1ccc(C2=C(Cl)c3cc(OC)c(OC)cc3C2)cc1OC,–,–,> 100 µM (inactive),> 100 µM (inactive),> 100 µM (inactive),> 100 µM (inactive),> 100 µM (inactive),> 100 µM (inactive),> 100 µM (inactive),> 100 µM (inactive),> 100 µM (inactive),–,> 100 µM (inactive),> 100 µM (inactive),> 100 µM (inactive),> 100 µM (inactive),–,–,–,–
CC(=O)CC(=O)Nc1ccc(OS(N)(=O)=O)cc1,> 100 µM (inactive),–,> 100 µM (inactive),> 100 µM (inactive),> 100 µM (inactive),> 100 µM (inactive),> 100 µM (inactive),> 100 µM (inactive),> 100 µM (inactive),> 100 µM (inactive),> 100 µM (inactive),> 100 µM (inactive),> 100 µM (inactive),> 100 µM (inactive),> 100 µM (inactive),> 100 µM (inactive),–,–,–,–
COc1ccc(CCNCc2cccc(OC)c2OC)cc1OC,> 100 µM (inactive),> 100 µM (inactive),> 100 µM (inactive),> 100 µM (inactive),–,–,> 100 µM (inactive),> 100 µM (inactive),> 100 µM (inactive),> 100 µM (inactive),–,> 100 µM (inactive),> 100 µM (inactive),> 100 µM (inactive),> 100 µM (inactive),> 100 µM (inactive),–,–,–,–
COC(=O)C1=C(c2cc(OC)c(OC)c(OC)c2)OC(c2cc(OC)c(OC)c(OC)c2)C1 (centres undefined),17.7 µM (inactive),17.9 µM (inactive),12.3 µM (inactive),–,17.1 µM (inactive),17 µM (inactive),16.4 µM (inactive),22.9 µM (inactive),–,53.1 µM (inactive),20.5 µM (inactive),28.4 µM (inactive),25.6 µM (inactive),30.7 µM (inactive),19.5 µM (inactive),24.1 µM (inactive),–,–,–,–
CC(=O)OCC1OC(O[C@H]2C=C[C@@H](C(=O)OCc3ccccc3)n3c(=O)n(-c4ccccc4)c(=O)n32)C(OC(C)=O)C(OC(C)=O)C1OC(C)=O (some centres undefined),3.27 µM (inactive),1.2 µM (inactive),1.57 µM (inactive),0.262 µM (active),4.55 µM (inactive),2.22 µM (inactive),2 µM (inactive),2.09 µM (inactive),0.986 µM (active),1.86 µM (inactive),2.14 µM (inactive),1.58 µM (inactive),18.7 µM (inactive),–,15.7 µM (inactive),0.851 µM (active),1.8 µM (inactive),2.61 µM (inactive),1.17 µM (inactive),2.62 µM (inactive)
COC(=O)C1=CC2C=CC(C1C(=O)OC)C1C(C(=O)OC)=C(C(=O)OC)C(C(=O)OC)=C(C(=O)OC)C21OC (centres undefined),–,> 100 µM (inactive),> 100 µM (inactive),> 100 µM (inactive),> 100 µM (inactive),> 100 µM (inactive),> 100 µM (inactive),> 100 µM (inactive),> 100 µM (inactive),> 100 µM (inactive),> 100 µM (inactive),> 100 µM (inactive),> 100 µM (inactive),> 100 µM (inactive),–,–,–,–,–,–
O=C(O)c1ccc(C(=O)Nc2cccc3ccccc23)c(C(=O)O)c1,> 100 µM (inactive),> 100 µM (inactive),> 100 µM (inactive),> 100 µM (inactive),> 100 µM (inactive),> 100 µM (inactive),> 100 µM (inactive),> 100 µM (inactive),> 100 µM (inactive),> 100 µM (inactive),> 100 µM (inactive),> 100 µM (inactive),> 100 µM (inactive),–,> 100 µM (inactive),> 100 µM (inactive),> 100 µM (inactive),> 100 µM (inactive),> 100 µM (inactive),> 100 µM (inactive)
OC1COC(OCc2ccccc2)C(O)C1O (centres undefined),> 100 µM (inactive),> 100 µM (inactive),> 100 µM (inactive),> 100 µM (inactive),> 100 µM (inactive),> 100 µM (inactive),> 100 µM (inactive),> 100 µM (inactive),> 100 µM (inactive),> 100 µM (inactive),> 100 µM (inactive),> 100 µM (inactive),> 100 µM (inactive),–,> 100 µM (inactive),> 100 µM (inactive),> 100 µM (inactive),> 100 µM (inactive),> 100 µM (inactive),> 100 µM (inactive)
CCCCCCC(=O)OC[n+]1ccc(-c2c(COC(=O)NC(C)C)c(COC(=O)NC(C)C)c3n2CCC3)cc1,> 100 µM (inactive),42.9 µM (inactive),> 100 µM (inactive),23.3 µM (inactive),> 100 µM (inactive),> 89.9 µM (inactive),> 80.9 µM (inactive),25.2 µM (inactive),57 µM (inactive),> 100 µM (inactive),> 80.4 µM (inactive),35.6 µM (inactive),> 100 µM (inactive),–,> 100 µM (inactive),24.6 µM (inactive),> 91 µM (inactive),> 82.4 µM (inactive),45.8 µM (inactive),> 100 µM (inactive)
Nc1nc(Cl)c(N)c(NCC2(CO)CCC(CCc3ccccc3)C2)n1 (centres undefined),13.4 µM (inactive),11.5 µM (inactive),18.4 µM (inactive),3.37 µM (inactive),18.2 µM (inactive),12.2 µM (inactive),9.93 µM (inactive),0.759 µM (active),10.4 µM (inactive),14.6 µM (inactive),14.4 µM (inactive),12.6 µM (inactive),22.3 µM (inactive),–,25.7 µM (inactive),6.21 µM (inactive),11.1 µM (inactive),21.4 µM (inactive),7.59 µM (inactive),1.56 µM (inactive)
O=C1CC(=O)c2c(N3CCCC3)sc(N3CCCC3)c21,> 100 µM (inactive),> 100 µM (inactive),> 100 µM (inactive),> 100 µM (inactive),> 100 µM (inactive),> 100 µM (inactive),> 100 µM (inactive),59 µM (inactive),57.4 µM (inactive),> 100 µM (inactive),> 100 µM (inactive),> 100 µM (inactive),> 100 µM (inactive),–,> 100 µM (inactive),41.2 µM (inactive),> 100 µM (inactive),> 100 µM (inactive),> 100 µM (inactive),> 100 µM (inactive)
COc1cc(C2c3cc4c(cc3OC(NCCO)C2C)OCO4)cc(OC)c1OC (centres undefined),0.382 µM (active),0.42 µM (active),1.52 µM (inactive),0.309 µM (active),0.644 µM (active),0.364 µM (active),0.526 µM (active),0.489 µM (active),0.241 µM (active),0.713 µM (active),0.406 µM (active),0.409 µM (active),0.553 µM (active),–,1.32 µM (inactive),0.197 µM (active),3.66 µM (inactive),0.678 µM (active),0.344 µM (active),> 74.3 µM (inactive)
C/C(=N\Nc1nc2ccccc2[nH]1)c1cc2ccccc2cn1,0.0741 µM (active),0.051 µM (active),0.0115 µM (active),< 0.01 µM (active),0.0382 µM (active),0.0158 µM (active),< 0.01 µM (active),0.0117 µM (active),< 0.0165 µM (active),0.0853 µM (active),0.0318 µM (active),0.0661 µM (active),0.0465 µM (active),–,0.277 µM (active),< 0.01 µM (active),0.592 µM (active),0.442 µM (active),< 0.01 µM (active),< 0.0352 µM (active)
O=C1NC(c2c(Cl)cccc2Cl)Nc2ccccc21 (centres undefined),16.4 µM (inactive),47.2 µM (inactive),> 100 µM (inactive),18 µM (inactive),40.2 µM (inactive),25.4 µM (inactive),49.4 µM (inactive),47.6 µM (inactive),25.9 µM (inactive),73.3 µM (inactive),36.3 µM (inactive),26.5 µM (inactive),> 100 µM (inactive),–,71.3 µM (inactive),> 10 µM (inactive),60 µM (inactive),29.2 µM (inactive),47.3 µM (inactive),> 100 µM (inactive)

# Source: ChEMBL document CHEMBL1201862, “PubChem BioAssay data set” (2004)
